Entries after “also recorded” stand apart in the source; their conditions may differ. Read-outs that look alike come from different tables or passages of the source.
Experiments:
[1] = system: P. falciparum mature gametocytes / male gamete exflagellation; assay: P. falciparum exflagellation assay; type: cell-based, Plasmodium falciparum; details: for inhibition at 10 µM: Plasmodium falciparum
[2] = system: P. falciparum oocyst formation; assay: Standard membrane feed assay, P. falciparum oocysts in A. stephensi; type: in vivo, Plasmodium falciparum; details: 10 µM, gametocytes exposed 24 h before feeding
Description: (§1) Gametocyte cultures were produced according to the same protocol as the Pf exflagellation assay. Pooled gametocyte cultures were evenly divided between compounds in fresh medium and incubated at 37°C for 24 h. The parasite pellets were then resuspended in fresh RBCs and human serum treated with the compounds to a 50% haematocrit and immediately fed to mosquitoes as described above and then maintained at 27°C/60%RH for 10–12 d before dissection and counting.
Figure 3 The transmission-blocking potential of selected antimalarials in three bioassays that cover different phases of Plasmodium vector stage development. (A) Assays examined exflagellation (P. falciparum), ookinete formation (P. berghei), or oocyst formation (P. falciparum). All antimalarials were screened at 10 µM. (B) The biological content of the in vitro P. berghei ookinete assay spans gamete formation, fertilization, zygote development, and ookinete formation. Ookinete formation was insensitive to most of the antimalarials tested. […] (D) The in vitro P. falciparum exflagellation assay exposes mature gametocytes to antimalarials for 24 h before triggering exflagellation. […] All experiments in triplicate. (E) The in vivo P. falciparum oocyst assay differs from the P. berghei oocyst assay in that mature gametocytes were exposed to the antimalarials in culture for 24 h before feeding to mosquitoes. […] NPC1161-B, lumefantrine, halofantrine, and mefloquine +RS isomer were also active. (n = 4–61 observations; average ± standard error of the mean [SEM]).

[3] = system: P. yoelii liver stage parasites (liver schizonts); assay: P. yoelii liver stage assay in HepG2 cells (EEF immunofluorescence); type: cell-based, Plasmodium yoelii; details: for IC50: Plasmodium yoelii
[4] = system: HepG2 cells; assay: Growth retardation of HepG2 cells; details: for IC50: Homo sapiens, HepG2, read-out: IC50 HepG2
[5] = system: Plasmodium oocysts; assay: Oocyst development / sporogony, Plasmodium species not stated at the place; type: in vivo; details: for inhibition at 10 µM: Plasmodium, box linked to oocysts, read-out: Inhibition at 10 μM (oocysts, Figure 5)
Description: Membrane feeds were performed as described previously. Briefly, PbGFPcon-infected mouse blood was mixed with compounds, immediately placed into membrane feeders (39°C) and offered for 30 min to 80–100 overnight-starved A. stephensi (SDA 500 strain). After 7–9 d at 19°C/80%RH, mosquito midguts were dissected out. Midguts were fixed with paraformaldehyde and oocyst number was determined microscopically by semi-automated analysis as previously described.
as §1, with “counting. […]” for “counting.”

[6] = 10 µM, 24 h exposure of mature gametocytes

CCCCN(CCCC)CCC(O)c1cc2c(Cl)cc(Cl)cc2c2cc(C(F)(F)F)ccc12 (centres unmarked) [halofantrine]
effect on exflagellation (words) [1, 6]: only moderate or no inhibition of exflagellation | enhancement (stimulation) of exflagellation [1, 6]: 45% | transmission-blocking effect on P. falciparum oocysts (words) [2]: active; also recorded: impaired sporogony | IC50 ([3]; HepG2, development of P. yoelii liver schizonts following infection of HepG2 cells, read-out: IC50 Parasite): 2320 ± 1350 nM | IC50 [4]: < 5660 nM | CI (cytotoxicity index) ([4]; human, 48 h): <2.44 | inhibition at 10 µM [5]: > 90%

COc1cc(N[C@H](C)CCCN)c2nccc(C)c2c1Oc1ccc(Cl)c(Cl)c1 [NPC-1161B]
effect on exflagellation (words) [1, 6]: inhibited exflagellation totally; also recorded: inhibit exflagellation in vitro; also recorded: inhibited both exflagellation and oocyst production | effect on exflagellation (words) ([1]; 10 µM, 24 h exposure of mature gametocytes, listed as NPC1161-B): showed potency | inhibition at 10 µM ([1]; read-out: inhibition of exflagellation, 10 µM, 24 h exposure of mature gametocytes): > 70% | inhibition at 10 µM ([1]; 10 μM, box linked to gametocytes/exflagellation, read-out: Inhibition at 10 μM (gametocytes/exflagellation, Figure 5)): > 60% | transmission-blocking effect on P. falciparum oocysts (words) [2]: totally blocked transmission | transmission-blocking effect on P. falciparum oocysts (words) ([2]; listed as NPC1161-B): active; also recorded: showed potency | IC50 ([3]; HepG2, box linked to liver schizont, read-out: IC50 (liver schizont, Figure 5)): < 1000 nM | IC50 ([3]; development of P. yoelii liver schizonts following infection of HepG2 cells, read-out: IC50 Parasite): 720 ± 70 nM | potency range against liver stages ([3]; dose response): submicromolar range | IC50 [4]: 840 ± 460 nM | CI (cytotoxicity index) ([4]; IC50 HepG2 compared to IC50 parasite): 1.17 | inhibition at 10 µM [5]: > 90% | effect on sporogony / oocyst production ([5]; species not given): inhibits sporogony; also recorded: inhibit exflagellation in vitro and oocyst production in the mosquito vector; also recorded: inhibited both exflagellation and oocyst production
